Eleven compounds from patent publication US8975417B2, “Pyrazolopyrrolidine derivatives and their use in the treatment of disease” (Novartis AG, priority 2013, dated 2015) can be followed below.

SMILES strings stand for the structures. Some results are limits rather than exact numbers.

As a reminder, the IC50 is the concentration that gives 50% inhibition.

In one experiment the test system is K-562 cells. As to the kind of experiment: Cell growth inhibition assay (CellTiter-Glo), K-562. In kind it is cell-based, human. The conditions noted are these: Homo sapiens, K562, read-out: K-562 TGI. As to the method:
(§1) Cell Growth Inhibition Assay
(§2) The human leukemia cell lines MV-4-11, THP-1 and K-562 were employed to characterize the effect of BET inhibitors on cellular proliferation and viability. Cells were obtained from the American Type Culture Collection (ATCC) and cultured at 37° C. in a humidified 5% CO2 incubator in the following media: MV-4-11: DMEM high glucose (Animed #1-26F01-I), 10% FCS (Animed #2-01F26-I), 4 mM L-Glutamine (Animed #5-10K50), 1 mM Sodium Pyruvate (Animed # G03625P), 1× Penicillin-Streptomycin (Animed # F12478P); K-562: Iscove's MEM (Animed #1-28F16-I), 10% FCS (Animed #2-01F26-I), 4 mM L-Glutamine (Animed #5-10K50), 1× Penicillin-Streptomycin (Animed # F12478P); THP-1: RPMI-1640 (Animed #1-41F01-I), 10% FCS (Animed #2-01F26-I), 2 mM L-Glutamine (Animed #5-10K50), 10 mM HEPES (Animed #5-31F100), 1 mM Sodium Pyruvate (Animed # G03625P), 1× Penicillin-Streptomycin (Animed # F12478P). The AML lines MV-4-11 and THP-1 are very sensitive to BET inhibitors and show massive cell death upon BET inhibition (Zuber et al., Nature, 478 (2011), 524-8). Compound-mediated suppression of cell proliferation/viability was assessed by quantification of cellular ATP levels using the CellTiter-Glo (CTG) reagent (Promega). Briefly, cells were seeded in 20 μl fresh medium into 384-well plates, followed by addition of 5 μL medium containing compound dilutions at 5-fold their final intended concentration. Dose-response effects were assessed by 3-fold serial dilutions of the test compound, starting at 10 μM. Following incubation of the cells for days at 37° C. and 5% CO2, the effect of inhibitors on cell viability was quantified following addition of 20 μl CTG and luminescence quantification (integration time: 100 ms) as per vendor manual, using a correspondingly equipped Tecan M200 multi-mode platereader (TECAN, Switzerland). For data analysis, the assay background value determined in wells containing medium, but no cells, was subtracted from all data points. To enable differentiation of cytotoxic from cytostatic compounds, the number of viable cells is assessed relative to that observed at the time of compound addition using a separate cell plate (day 0). The effect of a particular test compound concentration on cell proliferation/viability is expressed as percentage of the background- and day 0-corrected luminescence reading obtained for cells treated with vehicle only (DMSO, 0.1% final concentration), which is set as 100%, whereas that luminescence reading for wells containing medium is set as −100%. Compound concentrations leading to half-maximal (IC50) and total growth inhibition (TGI) were determined using standard four parameter curve fitting.

For experiment [1], the target named is His-CREBBP (1081-1197) bromodomain (Homo sapiens (Human), UniProt Q92793). Nature of the experiment: AlphaScreen in-vitro binding assay for CREBBP. The conditions noted are these: biochemical. In a few lines:
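Ni-chelate acceptor and streptavidin donor beads (45 µg/mL each, in 50 mM HEPES pH 7.5, 150 mM NaCl, 0.02% BSA) were then added for 60 min at room temperature. IC50 came from 8-point non-linear regression.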

For the next experiment, the target named is His-Brd3(20-477) (Homo sapiens (Human), UniProt Q15059). Nature of the experiment: TR-FRET in-vitro binding assay for BRD3. The settings on record: biochemical. In a few lines:
(§3)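 Eight-point dilution series tested against in-house His-BRD2(60-472), BRD3(20-477) or BRD4(44-477) (45 nM in dispensed solution) binding acetyl-histone H4 (AcK5,8,12,16; 60 nM in dispensed solution). Incubation 35 min at 30 °C, pH 7.5 HEPES buffer; detection by TR-FRET using Eu-anti-His6 and streptavidin-allophycocyanin.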
(Time-resolved FRET reads energy transfer from a long-lived donor to a nearby acceptor.)

The target of another experiment is His-Brd4(44-477) (Homo sapiens (Human), UniProt O60885). As to the kind of experiment: TR-FRET in-vitro binding assay for BRD4. The settings on record: biochemical. In a few lines: as §3
The next experiment concerns MV-4-11 cells. Nature of the experiment: Cell growth inhibition assay (CellTiter-Glo), MV-4-11. It is filed as cell-based. The settings on record: Homo sapiens, MV4-11, read-out: MV-4-11 TGI. As to the method: as §1, §2
(In ATP-based viability assays light output follows the ATP content of the culture.)

The next experiment deals with THP-1 cells. As to the kind of experiment: Cell growth inhibition assay (CellTiter-Glo), THP-1. The conditions noted are these: Homo sapiens, read-out: THP-1 TGI. It is filed as cell-based. The protocol:
as §1, §2

The target in another experiment is His-Brd2(60-472) (Homo sapiens (Human), UniProt P25440). As to the kind of experiment: TR-FRET in-vitro binding assay for BRD2. The conditions noted are these: biochemical. The essentials:
as §3

Sequence of His-Brd2(60-472) (P25440 60-472): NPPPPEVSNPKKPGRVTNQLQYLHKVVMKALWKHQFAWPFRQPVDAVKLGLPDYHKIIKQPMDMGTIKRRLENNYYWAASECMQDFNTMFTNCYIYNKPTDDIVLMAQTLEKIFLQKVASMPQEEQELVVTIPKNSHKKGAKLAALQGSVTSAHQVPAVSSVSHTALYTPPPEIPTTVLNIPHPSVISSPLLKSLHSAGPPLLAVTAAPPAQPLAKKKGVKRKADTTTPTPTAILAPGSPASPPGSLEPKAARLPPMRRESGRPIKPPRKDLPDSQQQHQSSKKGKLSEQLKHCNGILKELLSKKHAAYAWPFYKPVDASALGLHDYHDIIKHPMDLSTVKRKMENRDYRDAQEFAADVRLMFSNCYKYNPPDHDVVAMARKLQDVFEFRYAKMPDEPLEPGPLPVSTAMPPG
Sequence of His-CREBBP (1081-1197) bromodomain (Q92793 1081-1197): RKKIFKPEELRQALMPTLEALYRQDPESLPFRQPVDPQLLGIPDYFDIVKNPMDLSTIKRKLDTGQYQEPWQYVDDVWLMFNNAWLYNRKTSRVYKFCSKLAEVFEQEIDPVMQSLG
Sequence of His-Brd3(20-477) (Q15059 20-477): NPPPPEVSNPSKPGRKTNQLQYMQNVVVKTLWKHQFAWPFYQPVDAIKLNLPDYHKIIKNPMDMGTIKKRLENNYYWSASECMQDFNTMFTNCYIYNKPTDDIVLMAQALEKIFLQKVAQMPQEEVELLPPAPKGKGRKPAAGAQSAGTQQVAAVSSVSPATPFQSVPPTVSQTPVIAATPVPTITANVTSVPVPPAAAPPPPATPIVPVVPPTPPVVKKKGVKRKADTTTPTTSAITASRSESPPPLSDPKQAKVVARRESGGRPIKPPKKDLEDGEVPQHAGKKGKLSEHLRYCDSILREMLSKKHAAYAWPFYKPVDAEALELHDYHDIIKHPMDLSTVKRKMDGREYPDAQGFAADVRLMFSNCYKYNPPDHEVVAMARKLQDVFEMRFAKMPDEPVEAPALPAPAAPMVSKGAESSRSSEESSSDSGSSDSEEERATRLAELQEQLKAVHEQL

Turning to `CCn1nc2c(c1C)C(c1ccc(F)cc1F)N(c1cc(C)c3nnc(C)n3c1)C2=O` (centres unmarked) [Example 182, 4-(2,4-difluorophenyl)-5-(3,8-dimethyl-[1,2,4]triazolo[4,3-a]pyridin-6-yl)-2-ethyl-3-methyl-4,5-dihydropyrrolo[3,4-c]pyrazol-6(2H)-one], the IC (total growth inhibition) in the experiment on K-562 cells is greater than 10 µM; in the experiment on MV-4-11 cells, 0.12 µM; with THP-1 cells, 0.217 µM. For the same compound, the IC50 in experiment [1] was found to be 27 µM; on His-Brd3(20-477) it was 0.051 µM; on His-Brd4(44-477) it was 0.046 µM; at His-Brd2(60-472), 0.12 µM.
For `Cc1nn(C(C)C)c2c1C(c1ccc(Cl)cc1)N(c1cc(Cl)c(=O)n(C)c1)C2=O` (centres unmarked) [Example 66, 5-(5-chloro-1-methyl-6-oxo-1,6-dihydropyridin-3-yl)-4-(4-chlorophenyl)-1-isopropyl-3-methyl-4,5-dihydropyrrolo[3,4-c]pyrazol-6(1H)-one], the IC (total growth inhibition) with K-562 cells is greater than 10 µM; in the experiment with MV-4-11 cells, 0.106 µM; with THP-1 cells, 0.248 µM. For the same compound, the IC50 in experiment [1] turned out to be 2.6 µM; at His-Brd3(20-477), 0.11 µM; on His-Brd4(44-477), 0.12 µM; at His-Brd2(60-472), 0.16 µM.
On to `COCc1nn(C2CC2)c2c1[C@@H](c1ccc(Cl)cc1)N(c1cc(C)c(=O)n(C)c1)C2=O` [Example 162, (R)-4-(4-chlorophenyl)-1-cyclopropyl-5-(1,5-dimethyl-6-oxo-1,6-dihydropyridin-3-yl)-3-(methoxymethyl)-4,5-dihydropyrrolo[3,4-c]pyrazol-6(1H)-one], for which the IC (total growth inhibition) with K-562 cells was greater than 10 µM; in the experiment with MV-4-11 cells, 0.0903 µM; in the experiment on THP-1 cells it was 0.173 µM. The IC50 came to 3.7 µM in experiment [1], 0.042 µM on His-Brd3(20-477), 0.041 µM on His-Brd4(44-477) and 0.039 µM on His-Brd2(60-472).
On to `Cc1nn(C2CC2)c2c1C(c1ccc(Cl)cc1F)N(c1cc(C)c3nnc(C)n3c1)C2=O` (centres unmarked) [Example 178, 4-(4-chloro-2-fluorophenyl)-1-cyclopropyl-5-(3,8-dimethyl-[1,2,4]triazolo[4,3-a]pyridin-6-yl)-3-methyl-4,5-dihydropyrrolo[3,4-c]pyrazol-6(1H)-one], for which the IC (total growth inhibition) in the experiment on K-562 cells was greater than 10 µM; in the experiment on MV-4-11 cells it was 0.0491 µM; in the experiment with THP-1 cells, 0.107 µM. The IC50 in experiment [1] is 32 µM; at His-Brd3(20-477) it was 0.062 µM; on His-Brd4(44-477), 0.066 µM; on His-Brd2(60-472), 0.068 µM.
As to `Cc1nn(C(C)C)c2c1C(c1ccc(Cl)cc1F)N(c1cc(C)c(=O)n(C)c1)C2=O` (centres unmarked) [Example 180, 4-(4-chloro-2-fluorophenyl)-5-(1,5-dimethyl-6-oxo-1,6-dihydropyridin-3-yl)-1-isopropyl-3-methyl-4,5-dihydropyrrolo[3,4-c]pyrazol-6(1H)-one], the IC (total growth inhibition) with K-562 cells is greater than 10 µM; in the experiment with MV-4-11 cells it was 0.108 µM; in the experiment with THP-1 cells, 0.186 µM. Besides, the IC50 in experiment [1] is 2.4 µM; on His-Brd3(20-477) it was 0.071 µM; on His-Brd4(44-477), 0.083 µM; on His-Brd2(60-472) it was 0.089 µM.
For the compound `COc1ncc(-n2nc3c(c2C(C)C)C(c2ccc(Cl)cc2)N(c2cc(C)c4nnc(C)n4c2)C3=O)c(OC)n1` (centres unmarked) [Example 67, 4-(4-chlorophenyl)-2-(2,4-dimethoxypyrimidin-5-yl)-5-(3,8-dimethyl-[1,2,4]triazolo-[4,3-a]pyridin-6-yl)-3-isopropyl-4,5-dihydropyrrolo[3,4-c]pyrazol-6(2H)-one], the IC (total growth inhibition) in the experiment on K-562 cells is greater than 10 µM; in the experiment on MV-4-11 cells, 0.0196 µM; in the experiment with THP-1 cells, 0.0385 µM. The IC50 is 2.8 µM in experiment [1], 0.028 µM on His-Brd3(20-477), 0.024 µM at His-Brd4(44-477) and 0.043 µM at His-Brd2(60-472).
Consider `Cc1nn(C(C)C)c2c1[C@@H](c1ccc(Cl)cc1F)N(c1cc(C)c3nnc(C)n3c1)C2=O` [Example 189, (S)-4-(4-chloro-2-fluorophenyl)-5-(3,8-dimethyl-[1,2,4]triazolo[4,3-a]pyridin-6-yl)-1-isopropyl-3-methyl-4,5-dihydropyrrolo[3,4-c]pyrazol-6(1H)-one], for which the results for the IC (total growth inhibition) in the experiment on K-562 cells, with MV-4-11 cells and with THP-1 cells were greater than 10 µM, 0.0269 µM and 0.0261 µM, respectively. Moreover, the IC50 was 3.8 µM in experiment [1], 0.033 µM at His-Brd3(20-477), 0.029 µM on His-Brd4(44-477) and 0.04 µM at His-Brd2(60-472).
`COc1ncccc1-n1nc(C)c2c1C(=O)N(c1cc(C)c3nnc(C)n3c1)C2c1ccc(Cl)cc1F` (centres unmarked) [Example 184, 4-(4-chloro-2-fluorophenyl)-5-(3,8-dimethyl-[1,2,4]triazolo[4,3-a]pyridin-6-yl)-1-(2-methoxypyridin-3-yl)-3-methyl-4,5-dihydropyrrolo[3,4-c]pyrazol-6(1H)-one]: the IC (total growth inhibition) was greater than 10 µM with K-562 cells, 0.136 µM in the experiment with MV-4-11 cells and 0.337 µM in the experiment on THP-1 cells. Also, the IC50 in experiment [1] stood at 24 µM; at His-Brd3(20-477), 0.036 µM; on His-Brd4(44-477) it was 0.029 µM; at His-Brd2(60-472), 0.047 µM.
For the compound `Cc1cc(N2C(=O)c3c(c(CF)nn3C3CC3)C2c2ccc(Cl)cc2)cn2c(C)nnc12` (centres unmarked) [Example 159, 4-(4-chlorophenyl)-1-cyclopropyl-5-(3,8-dimethyl-[1,2,4]triazolo[4,3-a]pyridin-6-yl)-3-(fluoromethyl)-4,5-dihydropyrrolo[3,4-c]pyrazol-6(1H)-one], the figures for the IC (total growth inhibition) in the experiment on K-562 cells, with MV-4-11 cells and in the experiment with THP-1 cells were greater than 10 µM, 0.0812 µM and 0.0855 µM, respectively. Further, the values for the IC50 (in experiment [1]; at His-Brd3(20-477); at His-Brd4(44-477)) were 6.6 µM, 0.05 µM and 0.046 µM, respectively.
As for `Cc1nn(C2CC2)c2c1C(c1ccc(Cl)cc1)N(c1cn(C)c(=O)c3[nH]ccc13)C2=O` (centres unmarked) [Example 160, 4-(4-(4-chlorophenyl)-1-cyclopropyl-3-methyl-6-oxopyrrolo[3,4-c]pyrazol-5(1H,4H,6H)-yl)-6-methyl-1H-pyrrolo[2,3-c]pyridin-7(6H)-one], the results for the IC (total growth inhibition) in the experiment on K-562 cells, in the experiment with MV-4-11 cells and with THP-1 cells were greater than 10 µM, 0.102 µM and 0.107 µM, respectively. Besides, the IC50 amounted to 4.4 µM in experiment [1], 0.052 µM on His-Brd3(20-477) and 0.03 µM on His-Brd4(44-477).
On to `COc1ccccc1-n1nc(C)c2c1C(=O)N(c1cc(C)c3nnc(C)n3c1)C2c1ccc(F)cc1F` (centres unmarked) [Example 177, 4-(2,4-difluorophenyl)-5-(3,8-dimethyl-[1,2,4]triazolo[4,3-a]pyridin-6-yl)-1-(2-methoxyphenyl)-3-methyl-4,5-dihydropyrrolo[3,4-c]pyrazol-6(1H)-one], for which the IC (total growth inhibition) in the experiment with K-562 cells is greater than 10 µM; with MV-4-11 cells, 0.114 µM; in the experiment with THP-1 cells, 0.153 µM. In addition, the IC50 is 11 µM in experiment [1], 0.03 µM on His-Brd3(20-477) and 0.016 µM on His-Brd4(44-477).
